ChEMBL document CHEMBL4342498, “Design and Discovery of an Orally Efficacious Spiroindolinone-Based Tankyrase Inhibitor for the Treatment of Colon Cancer” (J Med Chem, 2020)
Active and inactive are the calls of the source. The rule behind the calls is not given here.

Experiments:
[1] = molecular target: T1, Poly [ADP-ribose] polymerase tankyrase-2 (Homo sapiens, UniProt Q9H2K2); experiment: Inhibition of recombinant human N-terminal TEV cleavage site-fused/FLAG-poly his-tagged TNKS2 ARC5-SAM-PARP domain (613 to 1166 residues) expressed in Escherichia coli assessed as reduction in auto-PARylation preincubated for 10 mins followed by biotinylated-NAD+ addition and measured after 45 mins by ELISA
T1 sequence (Q9H2K2 whole entry): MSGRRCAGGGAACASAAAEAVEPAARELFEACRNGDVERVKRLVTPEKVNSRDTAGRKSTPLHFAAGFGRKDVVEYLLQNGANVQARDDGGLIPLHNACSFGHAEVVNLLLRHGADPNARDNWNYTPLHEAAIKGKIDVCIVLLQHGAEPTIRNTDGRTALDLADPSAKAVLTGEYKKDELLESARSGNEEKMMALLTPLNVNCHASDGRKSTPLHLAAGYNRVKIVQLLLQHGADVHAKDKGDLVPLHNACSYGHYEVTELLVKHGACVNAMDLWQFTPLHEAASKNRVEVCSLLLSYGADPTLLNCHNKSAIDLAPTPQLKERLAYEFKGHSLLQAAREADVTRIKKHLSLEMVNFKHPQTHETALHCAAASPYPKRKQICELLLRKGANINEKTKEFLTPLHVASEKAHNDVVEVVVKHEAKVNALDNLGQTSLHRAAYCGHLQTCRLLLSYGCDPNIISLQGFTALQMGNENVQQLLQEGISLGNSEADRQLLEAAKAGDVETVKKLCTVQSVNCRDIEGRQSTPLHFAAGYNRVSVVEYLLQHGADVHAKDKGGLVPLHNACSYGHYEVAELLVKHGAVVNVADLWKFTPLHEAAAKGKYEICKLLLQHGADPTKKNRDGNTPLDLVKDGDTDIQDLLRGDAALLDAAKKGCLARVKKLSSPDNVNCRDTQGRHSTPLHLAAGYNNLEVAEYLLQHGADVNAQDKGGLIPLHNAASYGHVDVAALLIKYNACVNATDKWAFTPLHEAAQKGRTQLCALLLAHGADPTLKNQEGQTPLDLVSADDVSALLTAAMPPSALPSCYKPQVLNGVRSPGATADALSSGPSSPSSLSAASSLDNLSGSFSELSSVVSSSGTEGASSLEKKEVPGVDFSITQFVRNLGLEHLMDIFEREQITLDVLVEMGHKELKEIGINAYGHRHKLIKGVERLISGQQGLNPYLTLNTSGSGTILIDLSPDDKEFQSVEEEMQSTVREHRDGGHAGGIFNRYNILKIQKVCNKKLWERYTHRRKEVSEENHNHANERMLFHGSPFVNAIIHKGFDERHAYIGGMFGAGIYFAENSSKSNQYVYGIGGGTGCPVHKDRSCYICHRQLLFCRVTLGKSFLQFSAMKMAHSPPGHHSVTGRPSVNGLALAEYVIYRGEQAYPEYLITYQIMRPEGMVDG

COLO 320DM [2] = experiment: Antiproliferative activity against human COLO320DM cells assessed as inhibition of cell growth measured after 4 days by CellTiter-Glo assay; format: functional; conditions: 96 h
[3] = Stability in mouse liver microsomes assessed as parent compound remaining at 1 uM measured after 30 mins in presence of NADPH by LC-MS/MS analysis; format: ADME, Microsome; conditions: read-out: Stability
[4] = Stability in mouse liver microsomes assessed as parent compound remaining at 1 uM measured after 60 mins in presence of NADPH by LC-MS/MS analysis; format: ADME, Microsome; conditions: read-out: Stability
[5] = Stability in rat liver microsomes assessed as parent compound remaining at 1 uM measured after 30 mins in presence of NADPH by LC-MS/MS analysis; format: ADME, Microsome; conditions: read-out: Stability
[6] = Stability in rat liver microsomes assessed as parent compound remaining at 1 uM measured after 60 mins in presence of NADPH by LC-MS/MS analysis; format: ADME, Microsome; conditions: read-out: Stability
[7] = Stability in human liver microsomes assessed as parent compound remaining at 1 uM measured after 30 mins in presence of NADPH by LC-MS/MS analysis; format: ADME, Microsome; conditions: read-out: Stability
MDR1 = experiment: Efflux ratio of permeability across basolateral to apical side over apical to basolateral side in MDCK2-MDR1 cells; format: ADME, cell-based, Canis lupus familiaris; conditions: dog, MDCK-MDR1
[8] = Efflux ratio of permeability across basolateral to apical side over apical to basolateral side in MDCK2 cells; format: ADME, cell-based, Canis lupus familiaris, MDCK-II; conditions: dog, mdck
[9] = Tmax in ICR mouse at 50 mg/kg, ip; format: ADME, organism-based; conditions: in vivo
[10] = Cmax in ICR mouse at 50 mg/kg, ip; format: ADME, organism-based; parameters: dose 50 mg/kg, route intraperitoneal; conditions: in vivo
[11] = AUC (infinity) in ICR mouse at 50 mg/kg, ip; format: ADME, organism-based; parameters: dose 50 mg/kg, route intraperitoneal, time infinity; conditions: in vivo
[12] = molecular target: Poly [ADP-ribose] polymerase 2 (Homo sapiens, UniProt Q9UGN5); experiment: Inhibition of human recombinant N-terminal GST-tagged PARP2 (2 to 583 residues) expressed in baculovirus infected Sf9 cells assessed as reduction in auto-PARylation using histone as substrate measured after 45 mins in presence of biotinylated-NAD+ by ELISA
RKO = experiment: Antiproliferative activity against human RKO cells assessed inhibition of cell growth measured after 5 days by MTT assay; format: functional; conditions: 120 h
[13] = molecular target: Tankyrase 1/2 (Homo sapiens) (UniProt Q9H2K2+O95271); experiment: Inhibition of TNKS/TNKS2-mediated WNT/beta-catenin signaling pathway in human COLO320DM cells assessed as upregulation of AXIN2 expression at 0.1 uM measured after 16 hrs by Western blot analysis relative to control; format: cell-based
[14] = Dose normalized initial plasma concentration in Sprague-Dawley rat at 1 mg/kg, iv; format: ADME, organism-based; conditions: in vivo
[15] = Half life in Sprague-Dawley rat at 3 mg/kg, iv; format: ADME, organism-based; conditions: in vivo
[16] = Dose normalized AUC (infinity) in Sprague-Dawley rat at 1 mg/kg, iv; format: ADME, organism-based; conditions: in vivo
[17] = Volume of distribution at steady state in Sprague-Dawley rat at 3 mg/kg, iv; format: ADME, organism-based; conditions: in vivo, read-out: Vdss
[18] = AUC (infinity) in Sprague-Dawley rat at 3 mg/kg, po; format: ADME, organism-based; parameters: dose 3 mg/kg, time infinity, route oral; conditions: in vivo
[19] = Cmax in ICR mouse at 20 mg/kg, po; format: ADME, organism-based; parameters: dose 20 mg/kg, route oral; conditions: in vivo
[20] = Tmax in ICR mouse at 20 mg/kg, po; format: ADME, organism-based; conditions: in vivo
Cytochrome P450 3A4 = Cytochrome P450 3A4 (Homo sapiens, UniProt P08684); experiment: Inhibition of CYP3A4 in human liver microsomes using midazolam as substrate preincubated for 5 mins followed by NADPH addition and measured for 10 to 30 mins by LC-MS/MS analysis; format: ADME
[21] = Toxicity in human COLO320DM cells xenografted Prkdc-NOD-SCID CB17 mouse assessed as behavioral changes at 10 to 20 mg/kg, ip administered twice daily for 5 days followed by 2 days interval for 2 cycles measured during compound dosing; format: organism-based; conditions: in vivo
COLO 320DM [22] = experiment: Antitumor activity against human COLO320DM cells xenografted in Prkdc-NOD-SCID CB17 mouse assessed as tumor growth inhibition at 20 mg/kg, po administered twice daily for 5 days followed by 2 days interval for 2 cycles relative to control; format: functional; conditions: read-out: TGI
Mus musculus = experiment: In vivo inhibition of TNSK/TNSK2-medited WNT/beta-catenin signaling in human COLO320DM cells xenografted Prkdc-NOD-SCID CB17 mouse assessed as reduction in active-beta catenin expression in tumor nuclear extract at 10 to 20 mg/kg, po administered twice daily for 5 days followed by 2 days interval for 2 cycles measured 4 hrs post-last dose by Western blot analysis; format: functional, organism-based

Cytochrome P450 3A4, sequence (P08684 whole entry): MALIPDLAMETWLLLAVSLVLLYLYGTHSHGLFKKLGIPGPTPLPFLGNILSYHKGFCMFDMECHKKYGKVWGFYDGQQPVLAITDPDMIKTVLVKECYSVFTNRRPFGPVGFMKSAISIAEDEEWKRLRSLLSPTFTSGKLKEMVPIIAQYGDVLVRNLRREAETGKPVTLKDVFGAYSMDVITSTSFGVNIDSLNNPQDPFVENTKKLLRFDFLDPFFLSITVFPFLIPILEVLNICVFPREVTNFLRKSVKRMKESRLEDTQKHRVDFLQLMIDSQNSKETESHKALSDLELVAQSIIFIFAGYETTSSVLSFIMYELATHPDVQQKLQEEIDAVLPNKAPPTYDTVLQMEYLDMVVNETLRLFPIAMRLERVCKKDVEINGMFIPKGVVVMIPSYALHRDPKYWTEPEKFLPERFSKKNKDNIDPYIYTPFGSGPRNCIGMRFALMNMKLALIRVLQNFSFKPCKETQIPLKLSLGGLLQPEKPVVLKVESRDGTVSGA
Tankyrase 1/2 (Homo sapiens), sequence (O95271 whole entry, looked up, one chain of several): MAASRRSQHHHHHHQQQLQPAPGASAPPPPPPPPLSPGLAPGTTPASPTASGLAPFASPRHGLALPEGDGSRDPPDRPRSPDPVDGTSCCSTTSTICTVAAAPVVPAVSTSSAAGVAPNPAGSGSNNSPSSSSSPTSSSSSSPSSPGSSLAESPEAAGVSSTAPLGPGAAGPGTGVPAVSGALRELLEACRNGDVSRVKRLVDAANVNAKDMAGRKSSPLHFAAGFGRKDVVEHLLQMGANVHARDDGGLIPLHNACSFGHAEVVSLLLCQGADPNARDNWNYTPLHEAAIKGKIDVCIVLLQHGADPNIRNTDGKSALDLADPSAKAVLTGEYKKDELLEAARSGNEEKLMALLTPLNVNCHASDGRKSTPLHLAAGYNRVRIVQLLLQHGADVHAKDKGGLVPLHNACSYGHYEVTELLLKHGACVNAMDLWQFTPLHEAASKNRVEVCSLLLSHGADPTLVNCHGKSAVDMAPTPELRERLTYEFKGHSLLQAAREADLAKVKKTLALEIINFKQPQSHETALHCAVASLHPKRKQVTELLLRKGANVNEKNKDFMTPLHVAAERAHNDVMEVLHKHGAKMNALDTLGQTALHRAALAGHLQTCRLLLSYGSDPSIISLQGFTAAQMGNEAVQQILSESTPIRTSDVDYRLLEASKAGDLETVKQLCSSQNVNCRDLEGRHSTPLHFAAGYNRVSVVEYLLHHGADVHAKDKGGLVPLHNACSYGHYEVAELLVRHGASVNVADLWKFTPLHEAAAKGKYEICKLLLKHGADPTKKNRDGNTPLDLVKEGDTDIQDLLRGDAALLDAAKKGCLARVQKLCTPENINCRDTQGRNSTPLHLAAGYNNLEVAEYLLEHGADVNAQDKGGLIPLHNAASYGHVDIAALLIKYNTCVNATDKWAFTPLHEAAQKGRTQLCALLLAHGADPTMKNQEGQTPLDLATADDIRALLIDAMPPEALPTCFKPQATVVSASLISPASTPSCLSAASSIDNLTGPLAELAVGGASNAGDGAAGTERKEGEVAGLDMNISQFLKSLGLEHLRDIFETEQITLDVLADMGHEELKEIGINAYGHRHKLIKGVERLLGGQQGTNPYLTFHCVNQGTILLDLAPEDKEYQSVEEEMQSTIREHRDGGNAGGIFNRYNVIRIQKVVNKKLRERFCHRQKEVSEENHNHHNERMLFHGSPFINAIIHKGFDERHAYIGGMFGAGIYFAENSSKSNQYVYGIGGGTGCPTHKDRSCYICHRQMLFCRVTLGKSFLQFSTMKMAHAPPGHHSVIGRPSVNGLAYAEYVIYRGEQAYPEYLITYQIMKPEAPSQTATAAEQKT
Poly [ADP-ribose] polymerase 2, sequence (Q9UGN5 whole entry, the tested form may be a part): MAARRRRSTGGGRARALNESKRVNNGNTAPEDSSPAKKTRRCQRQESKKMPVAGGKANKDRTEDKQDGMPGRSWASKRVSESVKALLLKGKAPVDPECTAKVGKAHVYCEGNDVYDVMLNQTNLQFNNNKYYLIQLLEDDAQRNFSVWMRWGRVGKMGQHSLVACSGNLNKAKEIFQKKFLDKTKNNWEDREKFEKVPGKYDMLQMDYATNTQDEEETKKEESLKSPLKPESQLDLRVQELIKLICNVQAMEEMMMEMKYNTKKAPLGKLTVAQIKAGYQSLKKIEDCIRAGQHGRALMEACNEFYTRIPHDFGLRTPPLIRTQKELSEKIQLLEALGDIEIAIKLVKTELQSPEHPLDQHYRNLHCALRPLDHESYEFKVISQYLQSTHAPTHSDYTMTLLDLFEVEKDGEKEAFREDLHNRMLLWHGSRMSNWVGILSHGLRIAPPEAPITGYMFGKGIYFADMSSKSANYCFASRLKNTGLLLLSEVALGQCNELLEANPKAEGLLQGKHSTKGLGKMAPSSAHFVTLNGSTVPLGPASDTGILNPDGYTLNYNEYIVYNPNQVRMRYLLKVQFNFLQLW

Row | Compound | IC50 [1] | GI50 (COLO 320DM [2]) | remaining at 0.5 h, 1 µM [3] | remaining at 1 h, 1 µM [4] | remaining at 0.5 h, 1 µM [5] | remaining at 1 h, 1 µM [6] | remaining at 0.5 h, 1 µM [7] | efflux ratio (MDR1) | efflux ratio [8] | Tmax [9] | Cmax [10] | AUC(0-inf) [11] | other results
1 | C[C@@H]1CN(c2cc(F)c3c(c2)N(C)C(=O)C32CCN(c3nc4c(c(=O)[nH]3)CCCN4C)CC2)C[C@H](C)O1 | 39.2 nM | 230 nM | 49.7% | 28.7 to 55.9% | 57.3% | 44% | 73% | 1 | 0.9 | 1 h | 102 µM | 607 µM·h | IC50 [12]: 1240 nM; GI50 (RKO): > 10000 nM; fold change (FC) [13]: 5.23; C0/dose [14]: 15.26 µM; half-life [15]: 3.61 h; AUC/dose [16]: 10.49 µmol·h/L; Vd [17]: 1.02 L/kg; AUC(0-inf) [18]: 33 µM·h; Cmax [19]: 76.6 µM; Tmax [20]: 1 h; IC50 (Cytochrome P450 3A4): > 10000 nM; Activity [21]: Non-Toxic; inhibition in vivo at 20 mg/kg (COLO 320DM [22]): 52%; inhibition (Mus musculus): Active
2 | CN1CCN(c2cc(F)c3c(c2)N(C)C(=O)C32CCN(c3nc4c(c(=O)[nH]3)CCCN4C)CC2)CC1 | 12.3 nM | 190 nM | 54.9% | 30.5 to 54.5% | 80.2% | 65.3% | 72.7% | 13.2 | 3.1 | 0.5 h | 53.6 µM | 207 µM·h | –
